Values quoted from earlier work as cited in patent US20120302534A1, “DERIVATIVES OF BETULIN” (priority 2010, published 2012).

Test system: HIV

## C=C(C)[C@@H]1CC[C@]2(C(=O)O)CC[C@]3(C)[C@H](CC[C@@H]4[C@@]5(C)CC[C@H](OC(=O)CC(C)(C)C(=O)O)C(C)(C)[C@@H]5CC[C@]43C)[C@@H]12 [Bevirimat]
Patients who achieved trough levels of >=20 μg/mL and without key baseline Gag polymorphisms at Q369, V370 or T371
  reduced HIV viral load by a mean of: 1.3 log10/mL
Users with Gag polymorphisms at Q369, V370 or T371
  viral load reduction versus patients without Gag polymorphisms: significantly lower load reductions
